Peptide text beside a SMILES is read from it.
Tested on: dvssj1 frag 1 dsRNA
Test: CPP·dsRNA complex formation by gel shift assay
Format: binding
Settings: 770 nM unlabeled dsRNA (2100 ng); molar ratio 1:4 through 8:1; 1.2% TE agarose gel
Procedure: FIG. 2 Formation of CPP·dsRNA complex as assessed by gel shift assay. FIG. 2A Reactions were assembled as described in Example 3, with increasing amounts of MPG-YFP added to […] Cy3-dsRNA (595.8 ng), from a molar ratio (CPP:dsRNA) of 1:4 through 8:1. After incubation, 20 μL reaction volumes were each mixed with 2 μL 10% molecular biology grade glycerol and electrophoresed on a 1.2% Tris-EDTA (TE) agarose gel and stained with Invitrogen™ SYBR Safe DNA Gel Stain (Thermo Fisher Scientific, Waltham, MA). Effects on mobility of the Cy3-dsRNA band are observed upon increasing molar ratios of MPG-YFP. […] The large relative size of MPG-YFP causes a large band shift. FIG. 2B Reactions were assembled as described in Example 3, with increasing amounts of CyLoP added to 770 nM dsRNA (2100 ng), from a molar ratio of 1:4 through 8:1. […] FIG. 2C Results of MPG-YFP binding to Cy3-dsRNA (described in 2A) assessed by DLS. […] Readings were collected using default settings for protein molecules, at 25° C. with a 15 second equilibration stage, using a Zetasizer Ultra and accompanying software (Malvern Panalytical, Malvern, United Kingdom). The dispersant was adjusted to account for the specific viscosity and refractive index of the complex formation solution prior to calculation of detected sizes. […]

SMILES: N=C(N)NCCC[C@H](NC(=O)[C@H](Cc1c[nH]c2ccccc12)NC(=O)[C@H](CCCNC(=N)N)NC(=O)[C@@H](N)CS)C(=O)N[C@@H](Cc1c[nH]c2ccccc12)C(=O)N[C@@H](CCCCN)C(=O)N[C@@H](CS)C(=O)N[C@@H](CS)C(=O)N[C@@H](CCCCN)C(=O)N[C@@H](CCCCN)C(=O)O [CyLoP-1, CRWRWKCCKK] (H-CRWRWKCCKK-OH; N-terminus and C-terminus assumed)
- gel shift: apparent size of the RNA band with increasing CPP: binding of CyLoP molecules to the RNA

Source: patent US20240041050A1, “CELL PENETRATING PEPTIDE MEDIATED RNA TRANSDUCTION WITHIN INSECT CELLS” (PIONEER HI-BRED INTERNATIONAL, INC., priority 2020, published 2024)
